From patent publication US20050106276A1, “Pharmaceutical composition made from Chinese traditional medecine and method of producing thereof” (Jiangsu Kanion Pharmaceutial Co. Ltd., priority 2001, published 2005)
Where a name gives a salt, the structure may show the parent alone.

What was measured:
[1] = test system: experimental mice with hyperglycaemia; test: blood glucose value of mice with hyperglycaemia lead by Streptozocin; type: in vivo, mouse; conditions: Streptozocin mice serum
Method: 100 male mice, weighting 25˜30 g, were given Streptozocin on the dosage of 180 mg/kg by intraperitoneal injection. taking blood from eye sockets of the survivals 72 hours later, using evaluate kit evaluated serum glucose, select 40 mice with hyperglycosemia whose serum glucose value is 18˜33 mmol/L, Which were randomly divided into 4 groups: Model group, Positive medicine Phenformin group, High and low dose of invented capsule group. All mice were intragastric administration 1 time each day in 10 days; Take another 10 mice as normal control group. All mice were fasting diet 12 hours after last administration, then taking blood from eye sockets, separating blood serum, using evaluate kit evaluated serum glucose value with Glucose enzymic method, then using t-value method to compare the significance with model group.

[2] = test system: experimental rats with hyperglycaemia; test: blood glucose value of rats with hyperglycaemia lead by alloxan; type: in vivo, rat; conditions: alloxan rats serum
Method: 160 male rats, weighting 200˜250 g, were given alloxan on the dosage of 200 mg/kg by intraperitoneal injection. taking blood from eye sockets of the survivals 72 hours later, using evaluate kit evaluated serum glucose, select 40 rats with hyperglycosemia whose serum glucose value is 20˜25 mmol/L, Which were randomly divided into 4 groups: Model group, Positive medicine Phenformin group, High and low dose of invented capsule group. All rats were intragastric administration 1 time each day in 10 days; Take another 10 mice as normal control group. All mice were fasting diet 12 hours after last administration, then taking blood from eye sockets, separating blood serum, using evaluate kit evaluated serum glucose value with Glucose enzymic method, then using t-value method to compare the significance with model group.

[3] = 0.1 g/kg intragastric daily 10 days

[H]/N=C(/N)N/C(=N/[H])NCCc1ccccc1 [Phenformin, Phenformin Hydrochloride]
GLU After administration [1, 3]: 12.51 ± 6.93 mmol/L | GLU Before administration ([1]; baseline of 0.1 g/kg group): 25.43 ± 3.93 mmol/L | GLU After administration [2, 3]: 14.52 ± 4.99 mmol/L | GLU Before administration ([2]; baseline of 0.1 g/kg group): 22.72 ± 1.53 mmol/L
